A short description of data set [1]: adverse events associated with pirfenidone therapy in patients. Type of data set: in vivo, patient. The settings on record: dosing escalation scheme described herein (up to 2,403 mg per day, full dosage about Day 15). How it is done: As an investigational drug, pirfenidone is provided in tablet and capsule forms principally for oral administration. Various formulations have been tested and adopted in clinical trials and other research and experiments. […] Many of these effects can interfere with everyday activities and quality of life. These effects appear to be dose related. The adverse reactions associated with pirfenidone therapy are exacerbated when pirfenidone is administered at these higher doses.
The present invention overcomes the unmet clinical need by providing an improved, optimized dose escalation scheme for the administration of pirfenidone. The dose escalation scheme of the present invention provides pirfenidone in an amount such that the full maximum dosage is not reached for at least one week. In a preferred embodiment, the full maximum dosage of pirfenidone is not reached until about Day 15 of treatment. The method of the present invention allows for a maximum dosage of 2,403 mg of pirfenidone per day to be administered to a patient and also reduces the incidence of adverse events associated with the administration of pirfenidone by more accurately matching dose escalation with tolerance development in the patient. […]

Data set [2] deals with fibrogenic cytokines such as TGF-β1, bFGF, PDGF, and EGF. To be noted: Zhang S et al. 1998; cited from earlier work.
The next data set deals with TNF-α. To be noted: from macrophages and other cells; Cain et al. 1998; cited from earlier work.
For data set [3] the following is noted: oral tablet and capsule forms, clinical trials; effects appear to be dose related; cited from earlier work.

As for `Cc1ccc(=O)n(-c2ccccc2)c1` [pirfenidone, 5-methyl-1-phenyl-2-(1H)-pyridone], the “adverse events, such as somnolence and photosensitivity reaction, as the dosage escalates” value in data set [1] is on record as “decrease”. Moreover, in data set [2], the “excessive biosynthesis or release of various fibrogenic cytokines” value is given as “inhibits”. Also, the “synthesis and release of excessive amounts of TNF-α” value in the data set on TNF-α is “blocks”. Also, the “most common adverse reactions or events associated with pirfenidone therapy” value in data set [3] is “gastrointestinal upset, nausea, fatigue, somnolence, dizziness, headache, and photosensitivity rash”.

Values taken from patent US7696236B2, “Method of providing pirfenidone therapy to a patient” (InterMune, Inc., priority 2006, dated 2010).
